The record followed here is ChEMBL document CHEMBL1201862, “PubChem BioAssay data set” (2004).

One may read the EC50 as the concentration giving half of the maximal effect. One may read the IC50 as the concentration that inhibits the measured activity by half.

Assay [1] is described as follows: cells. Format: functional, cell-based.
In assay [2] the target is T1, Induced myeloid leukemia cell differentiation protein Mcl-1 (Homo sapiens, UniProt Q07820). The assay can be described thus: blockers of MCL1 binding to BIM peptide – biochemical, fluorescence polarization, BIM-BH3 peptide, 1536-well, dose response (AID 2217).
T1 sequence (Q07820 whole entry): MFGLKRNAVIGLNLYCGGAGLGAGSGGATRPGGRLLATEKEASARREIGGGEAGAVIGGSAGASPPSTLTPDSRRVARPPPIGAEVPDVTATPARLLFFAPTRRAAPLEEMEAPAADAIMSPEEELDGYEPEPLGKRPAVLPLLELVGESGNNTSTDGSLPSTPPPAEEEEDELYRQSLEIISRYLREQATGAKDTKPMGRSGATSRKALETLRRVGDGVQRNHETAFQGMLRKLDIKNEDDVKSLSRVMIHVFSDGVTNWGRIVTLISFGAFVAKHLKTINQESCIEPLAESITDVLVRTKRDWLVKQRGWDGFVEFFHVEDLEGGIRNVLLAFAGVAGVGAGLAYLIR
Assay [3] concerns the target Intestinal-type alkaline phosphatase (Homo sapiens, UniProt P09923). The assay can be described thus: activation of human intestinal alkaline phosphatase – biochemical, dose response (AID 488873). In kind it is functional.
For a further assay, the target named is Bcl-2-like protein 1 (Homo sapiens, UniProt Q07817). The assay can be described thus: blockers of BCLXL peptide binding – biochemical, fluorescence polarization, 1536-well, selectivity assay for MCL1 inhibitor project, dose response (AID 2218).
Chain of Bcl-2-like protein 1 (Q07817 whole entry): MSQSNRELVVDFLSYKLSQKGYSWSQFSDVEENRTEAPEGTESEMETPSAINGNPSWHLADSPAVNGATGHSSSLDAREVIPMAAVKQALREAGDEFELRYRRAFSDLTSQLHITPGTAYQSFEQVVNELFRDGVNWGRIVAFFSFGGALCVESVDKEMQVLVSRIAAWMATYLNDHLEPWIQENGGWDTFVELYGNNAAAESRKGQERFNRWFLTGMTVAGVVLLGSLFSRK
The target in assay [4] is Intestinal-type alkaline phosphatase (Mus musculus, UniProt P24822). Briefly: PubChem AID 488785. In kind it is functional.
Chain of Intestinal-type alkaline phosphatase (Mus musculus, UniProt P24822) (P24822 whole entry, the tested form may be a part): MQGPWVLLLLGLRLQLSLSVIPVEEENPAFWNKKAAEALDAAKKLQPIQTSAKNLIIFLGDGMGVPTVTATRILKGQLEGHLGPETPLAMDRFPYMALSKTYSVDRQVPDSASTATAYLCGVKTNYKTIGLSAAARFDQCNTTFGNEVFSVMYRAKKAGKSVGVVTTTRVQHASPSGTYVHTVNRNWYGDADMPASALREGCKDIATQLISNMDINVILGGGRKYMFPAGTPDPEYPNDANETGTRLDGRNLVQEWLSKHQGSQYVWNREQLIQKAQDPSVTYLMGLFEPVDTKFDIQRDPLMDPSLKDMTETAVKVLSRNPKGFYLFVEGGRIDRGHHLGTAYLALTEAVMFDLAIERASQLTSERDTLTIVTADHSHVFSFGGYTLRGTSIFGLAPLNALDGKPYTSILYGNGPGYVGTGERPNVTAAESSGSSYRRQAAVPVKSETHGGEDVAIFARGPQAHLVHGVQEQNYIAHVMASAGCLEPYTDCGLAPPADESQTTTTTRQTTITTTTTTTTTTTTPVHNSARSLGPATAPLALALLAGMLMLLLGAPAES
The target in assay [5] is T2, Carboxy-terminal domain RNA polymerase II polypeptide A small phosphatase 1 (Homo sapiens, UniProt Q9GZU7).
T2 sequence (Q9GZU7 whole entry): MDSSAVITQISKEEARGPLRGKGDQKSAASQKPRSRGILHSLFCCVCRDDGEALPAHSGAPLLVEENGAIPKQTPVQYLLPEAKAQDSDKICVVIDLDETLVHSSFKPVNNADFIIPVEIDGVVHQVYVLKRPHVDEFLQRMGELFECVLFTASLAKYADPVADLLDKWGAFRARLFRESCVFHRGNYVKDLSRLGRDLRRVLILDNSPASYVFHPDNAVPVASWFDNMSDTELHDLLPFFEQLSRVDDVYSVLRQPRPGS
The assay can be described thus: CTDSP1 inhibitors, concentration-response, biochemical, absorbance readout, ultra-high-throughput screen actives (AID 540297). In kind it is functional.

Assay [6] addresses T1, Induced myeloid leukemia cell differentiation protein Mcl-1. Format: functional.
For assay [7], the target named is T3, Alkaline phosphatase, tissue-nonspecific isozyme (Homo sapiens, UniProt P05186).
T3 sequence (P05186 whole entry): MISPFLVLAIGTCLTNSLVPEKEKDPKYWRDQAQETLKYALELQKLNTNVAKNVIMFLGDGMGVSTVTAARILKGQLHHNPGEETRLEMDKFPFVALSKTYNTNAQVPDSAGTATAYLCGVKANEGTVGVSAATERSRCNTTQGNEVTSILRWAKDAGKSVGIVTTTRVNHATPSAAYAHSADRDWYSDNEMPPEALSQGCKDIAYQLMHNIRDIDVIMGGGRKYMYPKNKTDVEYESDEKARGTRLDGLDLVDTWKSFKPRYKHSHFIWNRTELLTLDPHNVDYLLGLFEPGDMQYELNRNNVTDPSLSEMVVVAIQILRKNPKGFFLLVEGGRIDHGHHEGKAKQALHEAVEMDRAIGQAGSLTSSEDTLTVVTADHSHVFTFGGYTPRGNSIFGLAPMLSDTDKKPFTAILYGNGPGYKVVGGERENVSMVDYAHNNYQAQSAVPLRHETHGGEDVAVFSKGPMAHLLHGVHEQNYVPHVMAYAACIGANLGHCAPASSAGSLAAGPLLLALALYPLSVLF
Briefly: TNAP enzyme inhibition by screening hits, dose response, selectivity assay for mouse IAP inhibitor project, biochemical, human TNAP, uHTS hits (AID 488906). In kind it is functional.

Assay [8] can be described thus: cells. Format: functional, cell-based. This is another data set of the same source.
A further assay deals with Tumor necrosis factor (Homo sapiens, UniProt P01375). Briefly: analog potency on TNFa NF-kB signaling – cell-based, set 3, SAR follow-up (AID 2801). Format: functional.
Chain of Tumor necrosis factor (P01375 whole entry, the tested form may be a part): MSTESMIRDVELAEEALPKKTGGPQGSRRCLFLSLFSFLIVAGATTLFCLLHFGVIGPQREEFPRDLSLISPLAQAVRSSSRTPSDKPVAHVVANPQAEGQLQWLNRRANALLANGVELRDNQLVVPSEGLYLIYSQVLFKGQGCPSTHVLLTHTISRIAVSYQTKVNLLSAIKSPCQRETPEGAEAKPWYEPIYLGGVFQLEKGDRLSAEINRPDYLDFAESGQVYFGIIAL
In assay [9] the target is T4, Nucleotide-binding oligomerization domain-containing protein 1 (Homo sapiens, UniProt Q9Y239).
T4 sequence (Q9Y239 whole entry): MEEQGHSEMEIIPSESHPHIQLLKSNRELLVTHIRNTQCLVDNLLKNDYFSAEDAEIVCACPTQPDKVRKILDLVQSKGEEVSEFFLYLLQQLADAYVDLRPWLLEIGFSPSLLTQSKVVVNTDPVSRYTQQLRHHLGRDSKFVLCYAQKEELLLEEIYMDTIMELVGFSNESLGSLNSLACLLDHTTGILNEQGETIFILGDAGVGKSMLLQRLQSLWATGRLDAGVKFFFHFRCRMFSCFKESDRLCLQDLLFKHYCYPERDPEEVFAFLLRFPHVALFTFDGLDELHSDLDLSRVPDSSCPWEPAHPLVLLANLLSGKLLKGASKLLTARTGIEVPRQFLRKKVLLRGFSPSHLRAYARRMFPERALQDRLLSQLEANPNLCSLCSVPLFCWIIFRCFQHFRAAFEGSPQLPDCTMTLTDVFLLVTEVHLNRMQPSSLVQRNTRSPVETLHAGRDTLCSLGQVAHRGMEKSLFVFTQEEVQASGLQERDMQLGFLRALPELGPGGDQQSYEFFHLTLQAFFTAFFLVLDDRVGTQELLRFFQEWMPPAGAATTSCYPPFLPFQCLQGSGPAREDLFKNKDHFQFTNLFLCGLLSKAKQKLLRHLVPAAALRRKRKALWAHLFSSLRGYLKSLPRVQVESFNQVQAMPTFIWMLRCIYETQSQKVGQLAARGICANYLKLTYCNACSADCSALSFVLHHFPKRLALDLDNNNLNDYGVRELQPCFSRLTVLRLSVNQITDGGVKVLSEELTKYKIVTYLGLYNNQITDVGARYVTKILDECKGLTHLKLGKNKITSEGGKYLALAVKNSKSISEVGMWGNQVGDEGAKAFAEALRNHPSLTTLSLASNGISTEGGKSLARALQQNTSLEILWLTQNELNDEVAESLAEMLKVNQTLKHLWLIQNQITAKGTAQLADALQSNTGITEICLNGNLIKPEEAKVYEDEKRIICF
Briefly: SAR analysis of NF-kappaB dependent luciferase using DAP as an inducer - Set 2. [Related pubchem assays (depositor defined):AID1566, AID1575, AID1578, AID1579, AID1849, AID1852, AID2264]. In kind it is functional.

The target in assay [10] is T5, Interleukin-8 (Homo sapiens, UniProt P10145).
T5 sequence (P10145 whole entry): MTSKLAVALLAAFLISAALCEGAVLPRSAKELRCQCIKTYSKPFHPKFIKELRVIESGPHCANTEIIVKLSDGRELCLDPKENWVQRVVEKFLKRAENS
Briefly: SAR analysis of Tumor necrosis factor alpha (TNF-alpha) induced IL-8 secretion in MCF-7/NOD1 cells - Set 2. [Related pubchem assays (depositor defined):AID1575, AID2250, AID2260]. Format: functional, cell-based.

For assay [11], the target named is T6, Nucleotide-binding oligomerization domain-containing protein 2 (Homo sapiens, UniProt Q9HC29). The assay can be described thus: inhibition of MDP-driven NOD2 NF-kB reporter – cell-based, set 3, SAR follow-up (AID 2799). In kind it is functional.
T6 sequence (Q9HC29 whole entry, the tested form may be a part): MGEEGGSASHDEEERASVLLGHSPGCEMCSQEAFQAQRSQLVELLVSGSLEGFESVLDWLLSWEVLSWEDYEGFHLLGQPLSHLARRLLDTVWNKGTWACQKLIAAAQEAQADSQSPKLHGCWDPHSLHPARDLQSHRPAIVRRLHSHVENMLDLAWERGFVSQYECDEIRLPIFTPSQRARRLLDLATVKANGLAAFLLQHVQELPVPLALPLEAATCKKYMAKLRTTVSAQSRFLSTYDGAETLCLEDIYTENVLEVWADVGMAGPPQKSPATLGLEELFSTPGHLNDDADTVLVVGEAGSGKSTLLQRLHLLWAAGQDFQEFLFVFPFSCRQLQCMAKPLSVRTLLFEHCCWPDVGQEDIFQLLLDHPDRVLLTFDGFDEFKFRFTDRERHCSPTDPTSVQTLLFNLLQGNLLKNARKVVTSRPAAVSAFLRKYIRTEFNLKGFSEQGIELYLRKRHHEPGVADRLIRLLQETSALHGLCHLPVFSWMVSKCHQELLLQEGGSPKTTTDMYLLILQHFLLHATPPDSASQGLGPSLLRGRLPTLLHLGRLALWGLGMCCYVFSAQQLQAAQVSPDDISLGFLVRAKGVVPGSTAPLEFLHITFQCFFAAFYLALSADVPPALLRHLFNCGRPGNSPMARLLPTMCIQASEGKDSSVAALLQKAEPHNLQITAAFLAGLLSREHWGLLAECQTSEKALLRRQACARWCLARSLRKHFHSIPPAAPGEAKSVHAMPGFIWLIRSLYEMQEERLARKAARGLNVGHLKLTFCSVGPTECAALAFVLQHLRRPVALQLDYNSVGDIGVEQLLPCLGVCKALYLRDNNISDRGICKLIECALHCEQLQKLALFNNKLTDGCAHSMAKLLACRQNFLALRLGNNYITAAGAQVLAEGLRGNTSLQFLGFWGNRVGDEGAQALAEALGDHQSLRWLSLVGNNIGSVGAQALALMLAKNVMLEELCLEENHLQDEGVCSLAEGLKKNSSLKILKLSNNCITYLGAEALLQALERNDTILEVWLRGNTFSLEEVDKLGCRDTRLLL
Assay [12] deals with HEK293. The assay can be described thus: SAR analysis of compounds that are cytotoxic to HEK293 - Set 2. [Related pubchem assays (depositor defined):AID1575, AID1578, AID1849, AID2001, AID2333, AID2334, AID2335, AID2337, AID2800]. In kind it is functional, cell-based. As to conditions: Homo sapiens.
The target of assay [13] is T5, Interleukin-8. The assay can be described thus: SAR analysis of GM-Tri-DAP induced IL-8 secretion in MCF-7/NOD1 cells - Set 2. [Related pubchem assays (depositor defined):AID1575, AID1578, AID2333]. Format: functional, cell-based.
Assay [14] deals with HEK293. The assay can be described thus: SAR analysis of compounds that are cytotoxic to HEK293 - Set 3. [Related pubchem assays (depositor defined):AID1575, AID1578, AID1848, AID1849, AID2001, AID2333, AID2334, AID2335, AID2337, AID2469]. Format: functional, cell-based. As to conditions: Homo sapiens.
Assay [15] deals with T6, Nucleotide-binding oligomerization domain-containing protein 2. Briefly: inhibition of NOD2 signaling – set 2, SAR follow-up (AID 2475). In kind it is functional.
Assay [16] concerns the target T4, Nucleotide-binding oligomerization domain-containing protein 1. The assay can be described thus: SAR analysis of compounds that inhibit NOD1 - Set 2. [Related pubchem assays (depositor defined):AID1566, AID1575, AID1578, AID1849, AID1852, AID2333, AID2335, AID2798]. Format: functional.
Assay [17] has the same target. Briefly: SAR analysis of compounds that inhibit NOD1 - Set 3. [Related pubchem assays (depositor defined):AID1566, AID1575, AID1578, AID1849, AID1852, AID2333, AID2335, AID2466]. Format: functional.

SMILES strings stand for the structures. The source made the active and inactive calls.

Chain of Intestinal-type alkaline phosphatase (Homo sapiens, UniProt P09923) (P09923 whole entry): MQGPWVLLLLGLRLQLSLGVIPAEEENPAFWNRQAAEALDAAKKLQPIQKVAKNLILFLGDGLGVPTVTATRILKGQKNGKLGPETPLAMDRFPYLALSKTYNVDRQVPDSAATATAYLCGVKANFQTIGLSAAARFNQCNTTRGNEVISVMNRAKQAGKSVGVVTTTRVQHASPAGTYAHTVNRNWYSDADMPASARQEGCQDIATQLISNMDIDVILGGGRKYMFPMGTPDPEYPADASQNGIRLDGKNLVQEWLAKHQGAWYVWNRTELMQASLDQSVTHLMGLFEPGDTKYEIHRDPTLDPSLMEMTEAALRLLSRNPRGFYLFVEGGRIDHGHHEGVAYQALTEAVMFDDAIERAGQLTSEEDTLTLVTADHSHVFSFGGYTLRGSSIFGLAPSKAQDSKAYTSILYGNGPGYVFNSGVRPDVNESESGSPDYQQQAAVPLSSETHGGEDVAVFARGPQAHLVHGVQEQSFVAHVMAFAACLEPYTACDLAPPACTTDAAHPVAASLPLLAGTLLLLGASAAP

For `O=[N+]([O-])c1cc(S(=O)(=O)c2ccc(O)c([N+](=O)[O-])c2)ccc1O`, the EC50 is > 350 µM (not active) in “cells [1]”, > 100 µM (inactive) in assay [3] and > 350 µM (not active) in “cells [8]”. Further, the IC50 is 12.5 µM (not active) in [2]; > 109 µM (not active) at Bcl-2-like protein 1; 5.39 µM (active) in assay [4]; 3.31 µM (active) in assay [5]; 2.82 µM (active) in [6]; > 100 µM (inactive) in assay [7].
For `CC(C)n1c(SCCCc2ccccc2)nc2c1c(=O)[nH]c(=O)n2C`, the IC50 was > 20 µM (inactive) on Tumor necrosis factor; > 25 µM (inactive) in assay [9]; > 25 µM (inactive) at Interleukin-8 [10]; > 20 µM (inactive) in assay [11]; > 20 µM (inactive) in the assay on HEK293 [12]; > 25 µM (inactive) on Interleukin-8 [13]. For the same molecule, the IC50 with HEK293 [14] was > 20 µM (inactive); in assay [15], 17.6 µM (active); in assay [16] it was 12.3 µM (active); in [17], > 20 µM (inactive).
